biological target: human 5HT2c receptor (VSV Isoform) (Homo sapiens, UniProt P28335, I156V/I160V/N158S); assay: cell-based; conditions: 5-HT2c EC50 (hVSV, μM)
Sequence (P28335 33-458 I156V/N158S/I160V limits assumed): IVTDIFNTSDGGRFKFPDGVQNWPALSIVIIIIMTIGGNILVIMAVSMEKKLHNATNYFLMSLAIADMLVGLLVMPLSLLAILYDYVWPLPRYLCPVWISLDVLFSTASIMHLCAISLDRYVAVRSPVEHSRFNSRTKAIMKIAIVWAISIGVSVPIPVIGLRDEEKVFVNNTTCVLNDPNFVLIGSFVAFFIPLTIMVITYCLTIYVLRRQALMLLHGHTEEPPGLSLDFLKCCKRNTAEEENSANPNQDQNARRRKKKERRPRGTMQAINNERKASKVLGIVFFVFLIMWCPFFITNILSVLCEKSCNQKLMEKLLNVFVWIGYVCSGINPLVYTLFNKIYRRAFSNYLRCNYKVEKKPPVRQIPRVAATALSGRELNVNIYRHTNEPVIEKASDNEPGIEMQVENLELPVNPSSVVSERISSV

Question: Which EC50 does the source give for `CC1c2cc(Cl)cc(Cl)c2C2CNCC12` (centres unmarked) [Example 28, 4,6-Dichloro-8-methyl-1,2,3,3a,8,8a-hexahydroindeno[1,2-c]pyrrole] here?
Answer: < 0.1 µM

Question: For `COc1c(Cl)cc2c(c1Cl)C1CNCC1C2C` (centres unmarked) [Example 38, 4,6-Dichloro-5-Methoxy-8-methyl-1,2,3,3a,8,8a-hexahydroindeno[1,2-c]pyrrole], which EC50 is on record?
Answer: < 0.1 µM

Question: For `CC1c2cc(Cl)c(OCC3CC3)cc2C2CNCC12` (centres unmarked) [Example 39, 5-Cyclopropylmethoxy-6-chloro-8-methyl-1,2,3,3a,8,8a-hexahydroindeno[1,2-c]pyrrole], which EC50 is on record?
Answer: < 1 µM

Question: Which EC50 does the source give for `CC1c2ccc(OC(F)(F)F)cc2C2CNCC12` (centres unmarked) [Example 40, 5-Trifluoromethoxy-8-methyl-1,2,3,3a,8,8a-hexahydroindeno[1,2-c]pyrrole] here?
Answer: > 10 µM

Question: How did the EC50 turn out when `CCC1c2ccc(OC)cc2C2CNCC12` (centres unmarked) [Example 48, 5-Methoxy-8-ethyl-1,2,3,3a,8,8a-hexahydroindeno[1,2-c]pyrrole] was run?
Answer: > 10 µM

Question: How did the EC50 turn out when `COc1cc2c(cc1Cl)C(=O)C1CNCC21` (centres unmarked) [Example 53, 5-Methoxy-6-chloro-2,3,3a,8a-tetrahydro-1H-2-aza-cyclopenta[a]inden-8-one] was run?
Answer: < 1 µM

Question: For `COc1ccc2c(c1Cl)C1CNCC1C2O` (centres unmarked) [Example 54, 4-Chloro-5-methoxy-2,3,3a,8a-tetrahydro-1H-2-aza-cyclopenta[a]inden-8-ol], which EC50 is on record?
Answer: < 1 µM

Question: `COc1cc2c(cc1Cl)C(O)C1CNCC21` (centres unmarked) [Example 55, 5-Methoxy-6-chloro-2,3,3a,8a-tetrahydro-1H-2-aza-cyclopenta[a]inden-8-ol] was tested. Which EC50 did it give?
Answer: < 10 µM

Source: patent publication US8716324B2, “Tricyclic indeno-pyrrole derivatives as serotonin receptor modulators” (Athersys, Inc., priority 2004, dated 2014)
